Measurements published in US20250034165A1, “COMPOUND CONTAINING CYCLOALKYL OR HALOALKYL” (CHIA TAI TIANQING PHARMACEUTICAL GROUP CO., LTD., priority 2021, published 2025).
Read-outs that look alike come from different tables or passages of the source.

Columns and labels:
[1] = system: BAF3-EGFR (L858R/T790M/C797S) cells; test: Inhibition of proliferation of BAF3-EGFR (L858R/T790M/C797S) cells, CCK-8; type: cell-based; details: Ba/F3 EGFR, 72 h, read-out: BAF3(EGFR T790M L858R C797S) cell inhibitory activity IC50
Protocol: (§1) A flask of EGFR (L858R/T790M/C797S) cells in the logarithmic growth phase and good conditions was taken, and the cells were collected and added to a centrifuge tube. 20 μL of cells were taken and counted, and the required number of cells (mL) was pipetted and centrifuged at 1200 rpm for 3 min. The supernatant was discarded, and an appropriate amount of plating medium (RPMI medium+10% FBS) was added to adjust the cell density to 1.5×10^5 cells/mL. The cells were seeded on a 96-well plate at 100 μL/well using a multi-channel pipette and cultured in a cell incubator at 37° C., 5% CO2 with saturated humidity. After overnight incubation, compounds were loaded using a nanoliter pipettor, 2 duplicate wells were set for each concentration, and cells without compound added were used as negative controls.
(§2) Inhibition rate (%)=(mean value of negative control group-mean value of experimental group)/(mean value of negative control group−mean value of blank group)×100%.
(§3) A dose-response curve was fitted by four-parameter analysis, with the logarithm of compound concentration serving as abscissa and inhibition rate serving as ordinate, such that IC50 was calculated.

[2] = system: BAF3-EGFR (del19/T790M/C797S) cells; test: Inhibition of proliferation of BAF3-EGFR (Del19/T790M/C797S) cells, CCK-8; type: cell-based; details: Ba/F3 EGFR-Del19/T790M/C797S, 72 h, read-out: BAF3(EGFR T790M Del19 C797S) cell inhibitory activity IC50
Protocol: as §1, with “BAF3-EGFR (del19/T790M/C797S)” for “EGFR (L858R/T790M/C797S)”, “1.0×10^5” for “1.5×10^5”
as §2, §3

[3] = biological target: EGFR (d746-750/T790M/C797S) (Homo sapiens (Human), UniProt P00533, C797S/DEL746-750/T790M); test: Inhibitory activity for EGFR (d746-750/T790M/C797S) kinase; type: biochemical; details: ATP 5 μM; read-out: EGFR(d19/T790M/C797S) (IC50)
EGFR (d746-750/T790M/C797S), sequence (P00533 other isoform, or with tags, fused parts or gaps T790M/C797S/del 1-694/del 746-750 limits assumed): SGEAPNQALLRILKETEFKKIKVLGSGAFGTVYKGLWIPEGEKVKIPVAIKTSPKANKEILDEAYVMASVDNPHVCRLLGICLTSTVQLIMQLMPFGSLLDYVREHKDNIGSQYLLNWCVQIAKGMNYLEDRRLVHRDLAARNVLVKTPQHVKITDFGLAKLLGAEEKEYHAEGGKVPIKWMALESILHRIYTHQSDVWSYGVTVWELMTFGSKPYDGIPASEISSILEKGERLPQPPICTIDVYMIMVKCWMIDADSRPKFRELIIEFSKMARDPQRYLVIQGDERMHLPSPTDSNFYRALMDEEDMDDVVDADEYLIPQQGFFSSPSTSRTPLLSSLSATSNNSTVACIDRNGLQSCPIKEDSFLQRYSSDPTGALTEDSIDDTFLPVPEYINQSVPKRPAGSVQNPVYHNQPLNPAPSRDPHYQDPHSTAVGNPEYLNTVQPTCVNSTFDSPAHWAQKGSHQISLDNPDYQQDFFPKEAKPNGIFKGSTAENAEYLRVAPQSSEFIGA
Protocol: 1.5 Screening for Inhibitory Activity for EGFR (d746-750/T790M/C797S) Kinase
(§4) A 50 ng/μL EGFR (d746-750/T790M/C797S, BPS) stock solution was diluted with a kinase buffer (50 mM HEPES, 10 mM MgCl2, 2 mM DTT, 1 mM EGTA, 0.01% Tween 20), and 6 μL of 1.67× working solution at 0.05 ng/μL (final concentration: 0.03 ng/μL) was added to each well. Different compounds dissolved in DMSO were added to the wells using a nanoliter pipettor, resulting in the final concentrations of the compounds of 10 nM to 0.0024 nM (4-fold gradient for 7 concentrations in total), and blank control wells (without enzyme) and negative control wells (with enzyme, plus vehicle DMSO) were set, 2 replicate wells for each concentration. After enzyme was reacted with the compound or vehicle for 30 min, 5×ATP at 25 μM (final concentration: 5 μM, Sigma) prepared with a kinase buffer was mixed with 5× substrate at 0.5 μM (final concentration: 0.1 μM, ULight-poly GT, PerkinElmer) at a ratio of 1:1 (v:v), and the mixture was added to each well at 4 μL/well. After being sealed with a film, the plate was incubated at room temperature for 2 h, and then 5 μL of 4×EDTA at 40 mM (final concentration: 10 mM) was added to each well. After the plate was incubated for 5 min at room temperature, 5 μL of 4× detection reagent at 8 nM (final concentration: 2 nM, Eu-anti-phospho-tyrosine antibody, PerkinElmer) was added to each well. After being incubated at room temperature for 1 h, the plate was read using a PerkinElmer Envision multi-mode microplate reader (excitation: 320 nm, emission: 665 nm), and IC50 was calculated by four-parameter fitting.

[4] = biological target: EGFR (d746-750 (d19)/T790M) (Homo sapiens (Human), UniProt P00533, DEL746-750/T790M); test: Inhibitory activity for EGFR (d746-750 (d19)/T790M) kinase; type: biochemical; details: ATP 5 μM
EGFR (d746-750 (d19)/T790M), sequence (P00533 other isoform, or with tags, fused parts or gaps T790M/del 1-668/del 746-750 limits assumed): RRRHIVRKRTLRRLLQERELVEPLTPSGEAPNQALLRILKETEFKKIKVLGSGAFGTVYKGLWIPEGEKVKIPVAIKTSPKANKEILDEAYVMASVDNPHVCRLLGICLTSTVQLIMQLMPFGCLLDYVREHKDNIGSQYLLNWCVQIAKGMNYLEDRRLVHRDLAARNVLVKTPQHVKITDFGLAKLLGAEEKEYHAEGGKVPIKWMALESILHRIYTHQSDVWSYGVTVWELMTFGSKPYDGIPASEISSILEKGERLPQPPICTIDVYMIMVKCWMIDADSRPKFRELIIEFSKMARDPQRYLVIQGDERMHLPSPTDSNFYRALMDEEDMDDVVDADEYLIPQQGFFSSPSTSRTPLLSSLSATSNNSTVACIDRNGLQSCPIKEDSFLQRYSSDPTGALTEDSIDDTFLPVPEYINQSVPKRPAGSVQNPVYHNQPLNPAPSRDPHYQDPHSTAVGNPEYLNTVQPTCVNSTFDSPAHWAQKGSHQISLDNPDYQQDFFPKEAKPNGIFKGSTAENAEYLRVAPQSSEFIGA
Protocol: 1.3 Screening for Inhibitory Activity for EGFR (d746-750 (d19)/T790M) Kinase
as §4, with “(d746-750/T790M, Carna)” for “(d746-750/T790M/C797S, BPS)”, “0.005” for “0.05”, “0.003” for “0.03”

[5] = system: PC-9 EGFR-Del19-T790M-C797S cells; test: Inhibition of proliferation of PC-9-EGFR (Del19 T790M C797S) cells, CCK-8; type: cell-based; details: 72 h, read-out: PC-9-EGFR (Del19 T790M C797S) cell inhibitory activity IC50
Protocol: PC-9 EGFR-Del19-T790M-C797S cells in the logarithmic growth phase and good conditions were taken, washed with PBS, digested with pancreatin, terminated with a complete medium, collected and added to a centrifuge tube, adjusted to a cell density of 2×10^4 cells/mL, and seeded in a 96-well plate (100 μL/well). Meanwhile, compounds were loaded using a nanoliter pipettor resulting in the final concentrations of the compounds of 1000 nM-0.06 nM, and a control was set, replicate wells for each concentration. After 72 h of incubation in the cell incubator, the assay reagent CCK-8 (manufacturer: Dojindo Laboratories, Beijing; 10 μL/well) was added. After 2 h of incubation in the cell incubator, absorbance was measured at 450 nm on a PerkinElmer Envision microplate reader, and the inhibition rate was calculated.
as §2, §3

[6] = In vivo pharmacokinetics in ICR mice; details: for AUC(0-inf) / AUC(0-t) / MRT last / half-life / bioavailability / Cmax / Tmax: mouse, plasma; for AUC(0-t): read-out: AUC(0-t); for MRT last: read-out: MRT(0-t); for half-life: read-out: T½ (converted); for bioavailability: 10 mg/kg, PO vs IV; for Cmax: read-out: Cmax; for Tmax: read-out: Tmax
Protocol: The animals to be tested (ICR mice) were fasted for 12 h before administration and food was provided 4 h after administration, and water was freely drunk before and after the experiment and during the experiment.
After intragastric administration, about 0.1 mL of blood was collected from the orbit at 0 min, 15 min, 30 min, 1 h, 2 h, 4 h, 6 h, 8 h, 10 h, and 24 h. After anticoagulation with EDTA-K2, blood samples were transferred to a centrifuge within 30 min, and centrifuged at 4000 rpm for 10 min at 4° C. to separate the plasma. All the plasma samples were collected and immediately stored at −20° C. for testing.
300 μL of acetonitrile solution containing an internal standard ([…] diazepam) was added to 20 μL of the plasma sample to be tested and a standard curve sample. The mixture was shaken and homogeneously mixed for 5 min, and centrifuged at 12,000 rpm for 10 min. 70 μL of supernatant was taken and diluted with 70 μL of ultrapure water. After being mixed well, 2 μL of the resulting sample was subjected to LC/MS/MS, and a chromatogram was recorded.

Cc1cc2cc(n1)-c1cnn(C)c1OCCC[C@@H](C1CC1)CN1/C(=N/C2=O)Nc2cc(NCC3CCOCC3)ccc21 [Example 22]
IC50 [1]: < 5000 pM | IC50 [2]: < 1000 pM | IC50 [3]: 30 pM | IC50 [4]: 18 pM

Cc1cc2cc(n1)-c1cnn(C)c1OCCC[C@@H](C1CC1)CN1/C(=N/C2=O)Nc2ccc(NCCCN3CCCCC3)cc21 [Example 80]
IC50 [1]: < 5000 pM | IC50 [2]: < 1000 pM | IC50 [5]: < 50000 pM | IC50 [3]: 35 pM | IC50 [4]: 10 pM

Cc1cc2cc(n1)-c1cnn(C)c1OCCC[C@@H](C1CC1)CN1/C(=N/C2=O)Nc2cc(NC(C)C3(C)COC3)ccc21 (some centres unmarked) [Example 89]
IC50 [1]: < 5000 pM | IC50 [2]: < 1000 pM | IC50 [5]: < 50000 pM | IC50 [3]: 360 pM | IC50 [4]: 510 pM

Cc1cc2cc(n1)-c1cnn(C)c1OCCC[C@@H](C1CC1)CN1/C(=N/C2=O)Nc2cc(NCCCN3CCOCC3)ccc21 [Example 74]
IC50 [1]: < 5000 pM | CLz ([6]; IV): 70.5 mL/min/kg | AUC(0-inf) ([6]; 1 mg/kg, IV): 236 ng·h/mL | AUC(0-t) ([6]; 1 mg/kg, IV): 233 ng·h/mL | MRT last ([6]; 1 mg/kg, IV): 1.35 h | half-life ([6]; 1 mg/kg, IV): 1.84 h | bioavailability [6]: 35.4% | AUC(0-inf) ([6]; PO, 10 mg/kg intragastric): 830 ng·h/mL | AUC(0-t) ([6]; PO, 10 mg/kg intragastric): 824 ng·h/mL | Cmax ([6]; PO, 10 mg/kg intragastric): 97.6 ng/mL | MRT last ([6]; PO, 10 mg/kg intragastric): 6.42 h | Tmax ([6]; PO, 10 mg/kg intragastric): 0.5 h | half-life ([6]; PO, 10 mg/kg intragastric): 3.18 h | IC50 [2]: < 1000 pM | IC50 [5]: < 50000 pM

Cc1cc2cc(n1)-c1cnn(C)c1OCCC[C@@H](C1CC1)CN1/C(=N/C2=O)Nc2ccc(NC3CCN(C(C)C)CC3)cc21 [Example 54]
IC50 [1]: < 5000 pM | IC50 [2]: < 1000 pM | IC50 [5]: < 50000 pM | IC50 [3]: 21 pM | IC50 [4]: 13 pM

Cc1cc2cc(n1)-c1cnn(C)c1OCCC[C@@H](C1CC1)CN1/C(=N/C2=O)Nc2ccc(NCCN)cc21 [Example 58]
IC50 [1]: < 5000 pM | IC50 [2]: < 1000 pM | IC50 [3]: 15 pM | IC50 [4]: 9.4 pM

Cc1cc2cc(n1)-c1cnn(C3CC3)c1OCCC[C@@H](C)CN1/C(=N/C2=O)Nc2ccc(NCCN(C)C)cc21 [Example 17]
IC50 [1]: < 5000 pM | IC50 [2]: < 1000 pM | IC50 [3]: 14 pM | IC50 [4]: 12 pM

CCC1(Nc2ccc3c(c2)N/C2=N\C(=O)c4cc(C)nc(c4)-c4cnn(C)c4OCCC[C@@H](C4CC4)CN23)COC1 [Example 90]
IC50 [1]: < 5000 pM | CLz ([6]; IV): 37.8 mL/min/kg | AUC(0-inf) ([6]; 1 mg/kg, IV): 441 ng·h/mL | AUC(0-t) ([6]; 1 mg/kg, IV): 441 ng·h/mL | MRT last ([6]; 1 mg/kg, IV): 1.65 h | half-life ([6]; 1 mg/kg, IV): 1.58 h | bioavailability [6]: 68.4% | AUC(0-inf) ([6]; PO, 10 mg/kg intragastric): 3020 ng·h/mL | AUC(0-t) ([6]; PO, 10 mg/kg intragastric): 3010 ng·h/mL | Cmax ([6]; PO, 10 mg/kg intragastric): 352 ng/mL | MRT last ([6]; PO, 10 mg/kg intragastric): 6.47 h | Tmax ([6]; PO, 10 mg/kg intragastric): 0.5 h | half-life ([6]; PO, 10 mg/kg intragastric): 2.46 h | IC50 [2]: < 1000 pM

Cc1cc2cc(n1)-c1cnn(C)c1OCCC[C@@H](C1CC1)CN1/C(=N/C2=O)Nc2cc(NCC3COC3)ccc21 [Example 36]
IC50 [1]: < 5000 pM | IC50 [2]: < 1000 pM | IC50 [3]: 22 pM | IC50 [4]: 15 pM

Cc1cc2cc(n1)-c1cnn(C)c1OCCC[C@@H](C1CC1)CN1/C(=N/C2=O)Nc2ccc(NCCN3CCCCC3)cc21 [Example 83]
IC50 [1]: < 5000 pM | IC50 [2]: < 1000 pM | IC50 [3]: 17 pM | IC50 [4]: 13 pM

Cc1cc2cc(n1)-c1cnn(C)c1OCCC[C@@H](C1CC1)CN1/C(=N/C2=O)Nc2ccc(NCCCN(C)C)cc21 [Example 27]
IC50 [1]: < 5000 pM | IC50 [2]: < 1000 pM | IC50 [3]: 27 pM | IC50 [4]: 19 pM

Cc1cc2cc(n1)-c1cnn(C)c1OCCC[C@@H](C1CC1)CN1/C(=N/C2=O)Nc2ccc(OCCN(C)C)cc21 [Example 11]
IC50 [1]: < 5000 pM | IC50 [2]: < 1000 pM | IC50 [3]: 24 pM | IC50 [4]: 25 pM

Cc1cc2cc(n1)-c1cnn(C)c1OCCC[C@@H](C1CC1)CN1/C(=N/C2=O)Nc2cc(NC(C)CN(C)C)ccc21 (some centres unmarked) [Example 62]
IC50 [1]: < 5000 pM | IC50 [2]: < 1000 pM | IC50 [3]: 22 pM | IC50 [4]: 13 pM

Cc1cc2cc(n1)-c1cnn(C)c1OCCC[C@@H](C1CC1)CN1/C(=N/C2=O)Nc2cc(NCCN(C)C)ccc21 [Example 42]
IC50 [1]: < 5000 pM | IC50 [2]: < 1000 pM | IC50 [3]: 12 pM | IC50 [4]: 7.6 pM
